{"source": "PubChem BioAssay (NCI)", "experiment_in_all_cases": "inhibition of tumour cell growth, NCI panel, 48 h", "key": {"SK-MEL-5 melanoma": {"tested_on": "SK-MEL-5 melanoma"}, "CAKI-1 renal": {"tested_on": "CAKI-1 renal"}, "A549 NSCLC": {"tested_on": "A549 NSCLC"}, "RPMI-8226 leukemia": {"tested_on": "RPMI-8226 leukemia"}, "NCI/ADR-RES ovarian": {"tested_on": "NCI/ADR-RES ovarian"}, "EKVX NSCLC": {"tested_on": "EKVX NSCLC"}, "786-0 renal": {"tested_on": "786-0 renal"}, "OVCAR-4 ovarian": {"tested_on": "OVCAR-4 ovarian"}, "RXF 393 renal": {"tested_on": "RXF 393 renal"}, "MDA-MB-231 breast": {"tested_on": "MDA-MB-231 breast"}, "MALME-3M melanoma": {"tested_on": "MALME-3M melanoma"}, "PC-3 prostate": {"tested_on": "PC-3 prostate"}, "HOP-62 NSCLC": {"tested_on": "HOP-62 NSCLC"}, "SNB-75 CNS": {"tested_on": "SNB-75 CNS"}, "MOLT-4 leukemia": {"tested_on": "MOLT-4 leukemia"}, "IGROV1 ovarian": {"tested_on": "IGROV1 ovarian"}, "HT29 colon": {"tested_on": "HT29 colon"}, "NCI-H23 lung": {"tested_on": "NCI-H23 lung"}, "BT-549 breast": {"tested_on": "BT-549 breast"}, "T-47D breast": {"tested_on": "T-47D breast"}, "LOX IMVI melanoma": {"tested_on": "LOX IMVI melanoma"}, "SK-OV-3 ovarian": {"tested_on": "SK-OV-3 ovarian"}, "HS 578T breast": {"tested_on": "HS 578T breast"}, "SF-268 CNS": {"tested_on": "SF-268 CNS"}, "CCRF-CEM leukemia": {"tested_on": "CCRF-CEM leukemia"}, "SF-295 CNS": {"tested_on": "SF-295 CNS"}, "SK-MEL-2 melanoma": {"tested_on": "SK-MEL-2 melanoma"}, "M14 melanoma": {"tested_on": "M14 melanoma"}}, "note": "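Assay format: 96-well plates, 48-hour exposure. GI50: concentration for 50% inhibition of growth. TGI denotes the concentration required for complete inhibition of growth.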", "data": [{"compound": "CC1=CC(=O)C(O)C2(C)C1CC(O)C13COC4(C)C(OC(=O)C41)C(O)C23", "note": "(stereo unspecified)", "values": [{"measurement": "GI50", "setting": "SK-MEL-5 melanoma", "value": 5.06, "unit": "µM"}, {"measurement": "TGI", "setting": "SK-MEL-5 melanoma", "value": 21.2, "unit": "µM"}, {"measurement": "GI50", "setting": "CAKI-1 renal", "value": 10.4, "unit": "µM"}, {"measurement": "TGI", "setting": "CAKI-1 renal", "value": 54.4, "unit": "µM"}, {"measurement": "GI50", "setting": "A549 NSCLC", "value": 5.49, "unit": "µM"}, {"measurement": "TGI", "setting": "A549 NSCLC", "value": 34, "unit": "µM"}, {"measurement": "GI50", "setting": "RPMI-8226 leukemia", "value": 17.3, "unit": "µM"}, {"measurement": "TGI", "setting": "RPMI-8226 leukemia", "value": "> 100", "unit": "µM"}, {"measurement": "GI50", "setting": "NCI/ADR-RES ovarian", "value": 18.2, "unit": "µM"}, {"measurement": "TGI", "setting": "NCI/ADR-RES ovarian", "value": 61.3, "unit": "µM"}, {"measurement": "GI50", "setting": "EKVX NSCLC", "value": 11.9, "unit": "µM"}, {"measurement": "TGI", "setting": "EKVX NSCLC", "value": 41.6, "unit": "µM"}, {"measurement": "GI50", "setting": "786-0 renal", "value": 5.13, "unit": "µM"}, {"measurement": "TGI", "setting": "786-0 renal", "value": 27.4, "unit": "µM"}, {"measurement": "GI50", "setting": "OVCAR-4 ovarian", "value": 15, "unit": "µM"}, {"measurement": "TGI", "setting": "OVCAR-4 ovarian", "value": "> 100", "unit": "µM"}, {"measurement": "GI50", "setting": "RXF 393 renal", "value": 1.36, "unit": "µM"}, {"measurement": "TGI", "setting": "RXF 393 renal", "value": 6.98, "unit": "µM"}, {"measurement": "GI50", "setting": "MDA-MB-231 breast", "value": 15.4, "unit": "µM"}, {"measurement": "TGI", "setting": "MDA-MB-231 breast", "value": 43.9, "unit": "µM"}, {"measurement": "GI50", "setting": "MALME-3M melanoma", "value": 10.1, "unit": "µM"}, {"measurement": "TGI", "setting": "MALME-3M melanoma", "value": 37.4, "unit": "µM"}, {"measurement": "GI50", "setting": "PC-3 prostate", "value": 26.4, "unit": "µM"}, {"measurement": "TGI", "setting": "PC-3 prostate", "value": "> 100", "unit": "µM"}, {"measurement": "GI50", "setting": "HOP-62 NSCLC", "value": 6.12, "unit": "µM"}, {"measurement": "TGI", "setting": "HOP-62 NSCLC", "value": 36.6, "unit": "µM"}, {"measurement": "GI50", "setting": "SNB-75 CNS", "value": 22, "unit": "µM"}, {"measurement": "TGI", "setting": "SNB-75 CNS", "value": "> 100", "unit": "µM"}, {"measurement": "GI50", "setting": "MOLT-4 leukemia", "value": 0.0398, "unit": "µM"}, {"measurement": "TGI", "setting": "MOLT-4 leukemia", "value": 7.34, "unit": "µM"}, {"measurement": "GI50", "setting": "IGROV1 ovarian", "value": 12.3, "unit": "µM"}, {"measurement": "TGI", "setting": "IGROV1 ovarian", "value": 45.8, "unit": "µM"}, {"measurement": "GI50", "setting": "HT29 colon", "value": 9.02, "unit": "µM"}, {"measurement": "TGI", "setting": "HT29 colon", "value": "> 100", "unit": "µM"}, {"measurement": "GI50", "setting": "NCI-H23 lung", "value": 4.8, "unit": "µM"}, {"measurement": "TGI", "setting": "NCI-H23 lung", "value": 18.6, "unit": "µM"}, {"measurement": "GI50", "setting": "BT-549 breast", "value": 11, "unit": "µM"}, {"measurement": "TGI", "setting": "BT-549 breast", "value": 43.4, "unit": "µM"}, {"measurement": "GI50", "setting": "T-47D breast", "value": 17.6, "unit": "µM"}, {"measurement": "TGI", "setting": "T-47D breast", "value": 66.5, "unit": "µM"}, {"measurement": "GI50", "setting": "LOX IMVI melanoma", "value": 2.41, "unit": "µM"}, {"measurement": "TGI", "setting": "LOX IMVI melanoma", "value": 8.4, "unit": "µM"}, {"measurement": "GI50", "setting": "SK-OV-3 ovarian", "value": 16.5, "unit": "µM"}, {"measurement": "TGI", "setting": "SK-OV-3 ovarian", "value": 95.7, "unit": "µM"}, {"measurement": "GI50", "setting": "HS 578T breast", "value": 12.5, "unit": "µM"}, {"measurement": "TGI", "setting": "HS 578T breast", "value": 57.2, "unit": "µM"}, {"measurement": "GI50", "setting": "SF-268 CNS", "value": 12.6, "unit": "µM"}, {"measurement": "TGI", "setting": "SF-268 CNS", "value": 52.5, "unit": "µM"}, {"measurement": "GI50", "setting": "CCRF-CEM leukemia", "value": 5.79, "unit": "µM"}, {"measurement": "TGI", "setting": "CCRF-CEM leukemia", "value": "> 100", "unit": "µM"}, {"measurement": "GI50", "setting": "SF-295 CNS", "value": 8.02, "unit": "µM"}, {"measurement": "TGI", "setting": "SF-295 CNS", "value": 39.1, "unit": "µM"}, {"measurement": "GI50", "setting": "SK-MEL-2 melanoma", "value": 6.36, "unit": "µM"}, {"measurement": "TGI", "setting": "SK-MEL-2 melanoma", "value": 29.5, "unit": "µM"}, {"measurement": "GI50", "setting": "M14 melanoma", "value": 4.14, "unit": "µM"}, {"measurement": "TGI", "setting": "M14 melanoma", "value": 15.4, "unit": "µM"}]}]}
